Data published in patent US8324264B1, “Inhibitors of bacterial biofilms and related methods” (Sequoia Sciences, Inc., priority 2011, dated 2012).
Converted amounts (≈) assume the structure as drawn.

Legend:
P. aeruginosa biofilms = assay: Biofilm growth assay (spreading biofilm on semi-solid agar), P. aeruginosa; assay type: cell-based; settings: biofilm growth assay, overnight 37° C., vs negative controls, Tables 1-5; for IC85: Pseudomonas aeruginosa, read-out: P. aeruginosa: concentration that reduces the area of the spreading biofilm by greater than or equal to 85%
How it was run: (§1)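 Values are compound concentrations (μg/ml) that cut the spreading-biofilm zone area by ≥85% relative to negative controls after overnight 37 °C growth from 5 μL central inoculum. E. coli plates: LB, 0.6% agar, 0.5% glucose; P. aeruginosa plates: M8 agar plus 0.2% glucose, 100 μM CaCl2, 1 mM MgSO4, 0.5% Casamino acids.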

E. coli biofilms = assay: Biofilm growth assay (spreading biofilm on semi-solid agar), E. coli; assay type: cell-based; settings: biofilm growth assay, overnight 37° C., vs negative controls, Tables 1-5; for IC85: Escherichia coli, read-out: E. coli: concentration that reduces the area of the spreading biofilm by greater than or equal to 85%
How it was run: as §1

Compound	IC85 (P. aeruginosa biofilms)	IC85 (E. coli biofilms)	P. aeruginosa: concentration that reduces the area of the spreading biofilm by greater than or equal to 85% (P. aeruginosa biofilms)	E. coli: concentration that reduces the area of the spreading biofilm by greater than or equal to 85% (E. coli biofilms)
CC1(C)CC[C@]2(C(=O)O)CC[C@]3(C)C(=C(Cl)CC4[C@@]5(C)Cc6c(n[nH]c6N)C(C)(C)C5CC[C@]43C)C2C1 (stereo partly drawn) [Example 24, (4aS,6aS,6bR,13aR)-12-Amino-15-chloro-2,2,6a,6b,9,9,13a-heptamethyl-2,3,4,4a,5,6,6a,6b,7,8,8a,9,11,13,13a,13b,14,15b-octadecahydro-1H-chryseno[1,2-f]indazole-4-a-carboxylic acid]	0.5 µg/mL (≈ 0.947 µM)	1 µg/mL (≈ 1.89 µM)	–	–
CC1(C)CC[C@]2(C(=O)O)CC[C@]3(C)C(=C(c4cccc(CN)c4)CC4[C@@]5(C)Cc6c(n[nH]c6N)C(C)(C)C5CC[C@]43C)C2C1 (stereo partly drawn) [Example 18, (4aS,6aS,6bR,13aR)-12-Amino-15-(3-(aminomethyl)phenyl)-2,2,6a,6b,9,9,13a-heptamethyl-2,3,4,4a,5,6,6a,6b,7,8,8a,9,11,13,13a,13b,14,15b-octadecahydro-1H-chryseno[1,2-f]indazole-4-a-carboxylic acid]	–	–	0.5 µg/mL	1 µg/mL
C=C(C)[C@@H]1CC[C@]2(C(=O)O)CC[C@]3(C)[C@H](CC[C@@H]4[C@@]5(C)CC[C@H](O)C(C)(C)[C@@H]5CC[C@]43C)[C@@H]12 [Betulinic acid, reference compound]	> 16 µg/mL	> 16 µg/mL	–	–
CNc1[nH]nc2c1C[C@@]1(C)C(CC[C@]3(C)C1CC=C1C4CC(C)(C)CC[C@]4(C(=O)O)CC[C@]13C)C2(C)C (stereo partly drawn) [I]	> 16 µg/mL	8 µg/mL (≈ 15.8 µM)	–	–
CC1(C)CC[C@]2(C(=O)O)CC[C@]3(C)C(=C(c4ccc(N5CCNCC5)nc4)CC4[C@@]5(C)Cc6c(n[nH]c6N)C(C)(C)C5CC[C@]43C)C2C1 (stereo partly drawn) [Example 55, (4aS,6aS,6bR,13aR)-12-Amino-2,2,6a,6b,9,9,13a-heptamethyl-15-(6-(piperazin-1-yl)pyridin-3-yl)-2,3,4,4a,5,6,6a,6b,7,8,8a,9,11,13,13a,13b,14,15b-octadecahydro-1H-chryseno[1,2-f]indazole-4-a-carboxylic acid]	–	–	>1 µg/mL	2 µg/mL
Cc1ccc(C2=C3C4CC(C)(C)CC[C@]4(C(=O)O)CC[C@@]3(C)[C@]3(C)CCC4C(C)(C)c5n[nH]c(N)c5C[C@]4(C)C3C2)cc1N (stereo partly drawn) [Example 20, (4aS,6aS,6bR,13aR)-12-Amino-15-(3-amino-4-methylphenyl)-2,2,6a,6b,9,9,13a-heptamethyl-2,3,4,4a,5,6,6a,6b,7,8,8a,9,11,13,13a,13b,14,15b-octadecahydro-1H-chryseno[1,2-f]indazole-4-a-carboxylic acid]	–	–	0.5 µg/mL	2 µg/mL
CC1(C)CC[C@]2(C(=O)O)CC[C@]3(C)C(=C(c4ccc(N5CCC(N)CC5)nc4)CC4[C@@]5(C)Cc6c(n[nH]c6N)C(C)(C)C5CC[C@]43C)C2C1 (stereo partly drawn) [Example 57, (4aS,6aS,6bR,13aR)-12-Amino-15-(6-(4-aminopiperidin-1-yl)pyridin-3-yl)-2,2,6a,6b,9,9,13a-heptamethyl-2,3,4,4a,5,6,6a,6b,7,8,8a,9,11,13,13a,13b,14,15b-octadecahydro-1H-chryseno[1,2-f]indazole-4-a-carboxylic acid]	–	–	>2 µg/mL	1 µg/mL
CC1(C)CC[C@]2(C(=O)O)CC[C@]3(C)C(C(=O)C=C4[C@@]5(C)Cc6c(n[nH]c6N)C(C)(C)[C@@H]5CC[C@]43C)[C@@H]2C1 (stereo partly drawn) [M]	8 µg/mL (≈ 15.8 µM)	8 µg/mL (≈ 15.8 µM)	–	–
CC1(C)CC[C@]2(c3cc(N)[nH]n3)CC[C@]3(C)C(=CCC4[C@@]5(C)Cc6c(n[nH]c6N)C(C)(C)C5CC[C@]43C)C2C1 (stereo partly drawn) [Compound 60, (4aS,6aS,6bR,13aR)-4-a-(5-Amino-1H-pyrazol-3-yl)-2,2,6a,6b,9,9,13a-heptamethyl-2,3,4,4a,5,6,6a,6b,7,8,8a,9,11,13,13a,13b,14,15b-octadecahydro-1H-chryseno[1,2-f]indazol-12-amine]	–	–	0.5 µg/mL	1 µg/mL
Cc1c([C@]23CCC(C)(C)CC2C2=CCC4[C@@]5(C)Cc6c(n[nH]c6N)C(C)(C)C5CC[C@@]4(C)[C@]2(C)CC3)n[nH]c1O (stereo partly drawn) [Compound 82, 3-((4aS,6aS,6bR,13aR)-12-Amino-2,2,6a,6b,9,9,13a-heptamethyl-2,3,4,4a,5,6,6a,6b,7,8,8a,9,11,13,13a,13b,14,15b-octadecahydro-1H-chryseno[1,2-f]indazol-4-a-yl)-4-methyl-1H-pyrazol-5-ol]	–	–	0.5 µg/mL	1 µg/mL
CC1(C)CC[C@]2(C(=O)Sc3nnc(N)[nH]3)CC[C@]3(C)C(=CCC4[C@@]5(C)Cc6c(n[nH]c6N)C(C)(C)C5CC[C@]43C)C2C1 (stereo partly drawn) [Compound 70, (4aS,6aS,6bR,13aR)—S-5-Amino-4H-1,2,4-triazol-3-yl12-amino-2,2,6a,6b,9,9,13a-heptamethyl-2,3,4,4a,5,6,6a,6b,7,8,8a,9,11,13,13a,13b,14,15b-octadecahydro-1H-chryseno[1,2-f]indazole-4-a-carbothioate]	0.5 µg/mL (≈ 0.845 µM)	2 µg/mL (≈ 3.38 µM)	–	–
CC1(C)CC[C@]2(C(=O)NO)CC[C@]3(C)C(=CCC4[C@@]5(C)Cc6c(n[nH]c6N)C(C)(C)[C@@H]5CC[C@]43C)[C@@H]2C1 (stereo partly drawn) [Compound 65, (4aS,6aS,6bR,13aR)-12-Amino-N-hydroxy-2,2,6a,6b,9,9,13a-heptamethyl-2,3,4,4a,5,6,6a,6b,7,8,8a,9,11,13,13a,13b,14,15b-octadecahydro-1H-chryseno[1,2-f]indazole-4-a-carboxamide]	0.25 µg/mL (≈ 0.491 µM)	0.25 µg/mL (≈ 0.491 µM)	–	–
Lupeol [reference compound]	–	–	>16 µg/mL	>8 µg/mL
CC1(C)CC[C@]2(C(=O)O)CC[C@]3(C)C(=C(c4cncnc4)CC4[C@@]5(C)Cc6c(n[nH]c6N)C(C)(C)[C@@H]5CC[C@]43C)[C@@H]2C1 (stereo partly drawn) [Example 30, (4aS,6aS,6bR,8aR,13aR,15bS)-12-Amino-2,2,6a,6b,9,9,13a-heptamethyl-15-(pyrimidin-5-yl)-2,3,4,4a,5,6,6a,6b,7,8,8a,9,11,13,13a,13b,14,15b-octadecahydro-1H-chryseno[1,2-f]indazole-4-a-carboxylic acid]	–	–	2 µg/mL	1 µg/mL
COc1ccc(C2=C3[C@@H]4CC(C)(C)CC[C@]4(C(=O)O)CC[C@@]3(C)[C@]3(C)CC[C@H]4C(C)(C)c5n[nH]c(N)c5C[C@]4(C)C3C2)cn1 (stereo partly drawn) [Example 42, (4aS,6aS,6bR,8aR,13aR,15bS)-12-Amino-15-(6-methoxypyridin-3-yl)-2,2,6a,6b,9,9,13a-heptamethyl-2,3,4,4a,5,6,6a,6b,7,8,8a,9,11,13,13a,13b,14,15b-octadecahydro-1H-chryseno[1,2-f]indazole-4-a-carboxylic acid]	–	–	0.25 µg/mL	1 µg/mL
CC1(C)CC[C@]2(c3n[nH]c(O)c3F)CC[C@]3(C)C(=CCC4[C@@]5(C)Cc6c(n[nH]c6N)C(C)(C)C5CC[C@]43C)C2C1 (stereo partly drawn) [Compound 83, 3-((4aS,6aS,6bR,13aR)-12-Amino-2,2,6a,6b,9,9,13a-heptamethyl-2,3,4,4a,5,6,6a,6b,7,8,8a,9,11,13,13a,13b,14,15b-octadecahydro-1H-chryseno[1,2-f]indazol-4-a-yl)-4-fluoro-1H-pyrazol-5-ol]	–	–	0.25 µg/mL	0.5 µg/mL
CC1(C)CC[C@]2(C(=O)O)CC[C@]3(C)C(=C(c4ccc(N5CCOCC5)nc4)CC4[C@@]5(C)Cc6c(n[nH]c6N)C(C)(C)[C@@H]5CC[C@]43C)[C@@H]2C1 (stereo partly drawn) [Example 54, (4aS,6aS,6bR,8aR,13aR,15bS)-12-Amino-2,2,6a,6b,9,9,13a-heptamethyl-15-(6-morpholinopyridin-3-yl)-2,3,4,4a,5,6,6a,6b,7,8,8a,9,11,13,13a,13b,14,15b-octadecahydro-1H-chryseno[1,2-f]indazole-4-a-carboxylic acid]	–	–	1 µg/mL	2 µg/mL
CC1(C)CC[C@]2(C(=O)O)CC[C@]3(C)C(=C(c4ccoc4)CC4[C@@]5(C)Cc6c(n[nH]c6N)C(C)(C)[C@@H]5CC[C@]43C)[C@@H]2C1 (stereo partly drawn) [Example 26, (4aS,6aS,6bR,8aR,13aR,15bS)-12-Amino-15-(furan-3-yl)-2,2,6a,6b,9,9,13a-heptamethyl-2,3,4,4a,5,6,6a,6b,7,8,8a,9,11,13,13a,13b,14,15b-octadecahydro-1H-chryseno[1,2-f]indazole-4-a-carboxylic acid]	–	–	0.25 µg/mL	1 µg/mL
